Experimental data published in patent publication EP0819136B1, “MDP DERIVATIVES AND CONJUGATES HAVING HAEMATOPOIETIC FUNCTION STIMULATING ACTIVITY, AND COMPOSITIONS CONTAINING SAME” (VACSYN S.A., priority 1995, dated 1996).

Tested on: neutrophiles circulants, leucocytes circulants, monocytes circulants, myélocytes circulants
Test: Comparison of Muradimétide and GM-CSF on circulating cell counts after i.v. AZT (Example 9, figures 4-7)
Format: in vivo, souris Swiss femelles
Conditions: AZT 40 mg/kg i.v. days 0-3; Muradimétide 25 mg/kg or mGM-CSF 125 µg/kg i.v. 4 h before AZT
Excerpt: La figure 4 représente les effets comparés du Muradimétide et du rmGM-CSF (recombinant mouse GM-CSF) sur la numération des neutrophiles circulants après administration d'AZT.
La figure 5 représente la même comparaison sur la numération des leucocytes circulants.
La figure 6 représente la même comparaison sur la numération de monocytes circulants.
La figure 7 représente la même comparaison sur la numération des myélocytes circulants.
Lorsque les souris ayant reçu un traitement par l'AZT sont traitées par du GM-SCF dans les mêmes conditions que celles utilisées pour le Muradimétide, les comptages de leucocytes et de neutrophiles ne présentent pas d'augmentation contrairement à ce qui est observé lorsque la combinaison AZT-Muradimétide est utilisée. Par contre, on observe une augmentation du nombre des monocytes. Les figures 4, 5, 6, et 7 indiquent l'effet d'un traitement des souris avec du Muradimétide ou avec du mGM-CSF sur les changements respectivement dans les neutrophiles circulants, dans les leucocytes circulants ou dans les monocytes circulants ou dans les myélocytes circulants après une administration intraveineuse d'AZT.
Les souris Swiss femelles ont été traitées par voie intra-veineuse avec 40 mg par kg d'AZT aux jours 0, 1, 2 et 3. […]

COC(=O)CC[C@@H](NC(=O)[C@H](C)NC(=O)[C@@H](C)O[C@H]1[C@H](O)[C@@H](CO)OC(O)[C@@H]1NC(C)=O)C(=O)OC (stereo partly drawn) [Muradimétide, Nac-Mur-L-Ala-D-Glu-[OCH3]-OCH3]
comptages de leucocytes et de neutrophiles: effet nettement marqué | élévation / mobilisation des CSH dans le sang (myélocytes circulants): très forte élévation
